This is an account of results in US20240182472A1, “INDAZOLE PYRIDONE COMPOUNDS AND USES THEREOF” (Bluejay Therapeutics, Inc., priority 2022, published 2024).

Structures are written as SMILES. Where two headings read alike, the source gives them in different places.

One data set deals with T1, OATP1B1 (Homo sapiens, UniProt Q9Y6L6).
T1 construct: host or cells: HEK293 (HEK293-OATP1B1), stably transfected
T1 sequence (Q9Y6L6 1-691): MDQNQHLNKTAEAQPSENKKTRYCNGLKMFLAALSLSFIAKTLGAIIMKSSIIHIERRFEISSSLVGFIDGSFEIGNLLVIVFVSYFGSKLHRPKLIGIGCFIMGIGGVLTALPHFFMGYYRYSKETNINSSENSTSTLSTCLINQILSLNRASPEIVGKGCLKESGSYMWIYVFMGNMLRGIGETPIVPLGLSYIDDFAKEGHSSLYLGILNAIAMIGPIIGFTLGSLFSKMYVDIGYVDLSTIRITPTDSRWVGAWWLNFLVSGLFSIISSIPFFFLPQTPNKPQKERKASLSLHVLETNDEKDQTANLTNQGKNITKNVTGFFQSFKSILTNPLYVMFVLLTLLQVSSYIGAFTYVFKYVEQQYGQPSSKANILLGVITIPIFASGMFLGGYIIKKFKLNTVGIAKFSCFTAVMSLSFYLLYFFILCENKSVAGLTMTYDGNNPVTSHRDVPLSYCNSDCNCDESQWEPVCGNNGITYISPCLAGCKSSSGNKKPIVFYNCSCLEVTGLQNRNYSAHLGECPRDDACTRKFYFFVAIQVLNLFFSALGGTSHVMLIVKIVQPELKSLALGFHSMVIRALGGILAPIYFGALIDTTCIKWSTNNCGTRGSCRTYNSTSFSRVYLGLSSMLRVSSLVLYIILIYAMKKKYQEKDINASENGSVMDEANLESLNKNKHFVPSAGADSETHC
Format: in vitro ADME. The protocol: (§1) The OATP1B1 and OATP1B3 substrate assays were conducted at Wuxi utilizing the human embryonic kidney cell line, HEK293, stably transfected with human transporter genes. The identification of potential transporter substrates are achieved by measuring the Uptake Fold values in the transfected HEK293-OATP1B1 and OATP1B3 cells line and the HEK293-MOCK cell line in the Presence and Absence of positive inhibitors.
(§2) The objective of this study was to determine whether Compound I.2 and Compound I.6 are potential OATP1B1 and OATP1B3 uptake substrates.
(§3) HEK-293 cells stably expressing the human OATP1B1 and OATP1B3 transporter and the HEK293-MOCK cell line were licensed from GenoMembrane (Kanagawa, Japan). The culture medium was DMEM (HEK293-OATP1B3 cells were maintained in DMEM/F12) supplemented with 10.0% FBS, 500 μg/mL G418 sulfate solution, 100 U/mL penicillin-G and 100 μg/mL streptomycin. Cells were incubated in 5.0% CO2 at 37.0° C. with saturated humidity. HEK293-OATP1B1 (Passage: 19), OATP1B3 (Passage: 19), and HEK293-MOCK (Passage: 14 and 16) were grown to 80.0 to 90.0% confluence in the culture flask. Trypsin/EDTA (0.05%/0.02%, w/v) was added to detach the cells from the flask. The cells were seeded onto 96-well plates with a density of 5.00×10^4 cells/well, and then incubated for 24 hours in 5.0% CO2 at 37.0° C. with saturated humidity before being used in the uptake study.
(§4) Pre-incubation: Cell culture medium was removed from the 96-well plates seeded with either HEK293-OATP1B1 and OATP1B3 or HEK293-MOCK cells, followed by rinsing the cells twice with the warm (37.0° C.) Transport Buffer. The cells were then pre-incubated for 30 min with the Transport Buffer in the Presence and Absence of positive inhibitors in 5.0% CO2 at 37.0° C. with saturated humidity.
(§5) Uptake incubation: At the end of the pre-incubation, the buffers were removed and the cells were treated with Compound I.6 or Compound I.2 at 0.100 or 1.00 μM in the presence and absence of positive inhibitor. In separate wells, the marker substrate for transporter cells were incubated with dosing solution (Table A), all treatments were conducted in triplicate wells in 5.0% CO2 at 37.0° C. with saturated humidity.
(§6) Cell lysing: At the end of the incubations, dosing solution was removed. After removing the remaining dosing solution, the cell was rinsed three times with ice-cold Transport Buffer (2.0-8.0° C.) followed by adding 100 μL cold acetonitrile:methanol (95: 5, v: v) containing internal standard into the cells treated with test compound for bioanalysis. For the cells dosed with positive control, the cells were added 100 μL cold acetonitrile:methanol (95:5, v: v) containing internal standard for bioanalysis. All samples were gently shaken for 30 min. Then for test compound and positive control, 75 μL of the cell lysate was mixed with 75 μL of Transport Buffer and 150 μL of cold acetonitrile:methanol (95:5, v:v) containing internal standard. The lysis sample was centrifuged for 10 min at 3220×g before the supernatant, defined as the terminal sample, was taken for the determination of the intracellular uptake of the test compounds or substrate by LC-MS/MS.
(§7) Uptake Fold was calculated using equation (1)

The target of another data set is T2, OATP1B3 (Homo sapiens, UniProt Q9NPD5).
T2 construct: host or cells: HEK293 (HEK293-OATP1B3), stably transfected
T2 sequence (Q9NPD5 1-702): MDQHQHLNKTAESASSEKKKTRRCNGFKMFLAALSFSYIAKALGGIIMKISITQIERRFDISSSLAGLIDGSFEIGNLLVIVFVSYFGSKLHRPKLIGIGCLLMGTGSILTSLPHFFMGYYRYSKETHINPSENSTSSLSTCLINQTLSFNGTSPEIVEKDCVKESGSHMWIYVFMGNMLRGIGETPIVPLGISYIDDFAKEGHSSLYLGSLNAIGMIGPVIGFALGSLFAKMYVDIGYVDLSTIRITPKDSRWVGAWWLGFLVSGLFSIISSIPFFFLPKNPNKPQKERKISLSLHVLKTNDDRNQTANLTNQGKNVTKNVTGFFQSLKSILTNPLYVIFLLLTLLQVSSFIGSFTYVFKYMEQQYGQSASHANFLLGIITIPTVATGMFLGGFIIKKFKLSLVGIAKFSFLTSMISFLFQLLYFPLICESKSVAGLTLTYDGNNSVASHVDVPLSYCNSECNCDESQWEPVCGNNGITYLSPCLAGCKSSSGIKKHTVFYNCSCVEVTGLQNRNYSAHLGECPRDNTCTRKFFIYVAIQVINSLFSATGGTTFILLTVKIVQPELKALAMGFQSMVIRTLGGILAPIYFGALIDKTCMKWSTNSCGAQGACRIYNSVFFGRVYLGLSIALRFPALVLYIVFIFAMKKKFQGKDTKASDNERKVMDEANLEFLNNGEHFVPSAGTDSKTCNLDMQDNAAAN
Type of data set: in vitro ADME. The protocol: as §1, §2, §3, §4, §5, §6, §7

Another data set concerns HBV S-antigen secretion. The experiment in a line: HBsAg assay (HepG2 HBV S-antigen secretion biological assay). Type of data set: cell-based. Conditions: Hepatitis B virus, HepG2.2.15, 72 h, read-out: EC50, HBV S-antigen secretion. The protocol: HepG2.2.15 cells were grown in flasks microscopically and seeded into 96-well plates at a concentration of 6.0×10^4 cells/well and incubated at 37° C., 5% CO2 overnight.
Source plate preparation. The stock concentration of reference compound and test compounds is 20 mM. Firstly, manually diluted the compound to obtain the first concentration points of 10 μM and 200 μM, respectively. Then a 3-fold, 8 points serial dilution is performed to obtain the 200× source plate.
Source plate compounds were pipetted as follows: 3 μL 200× source plate compounds into sterile 2 mL 96 well plate which contain 297 μL 2% FBS Medium, mix well and transfer 100 μL/well to corresponding cell culture plates. Therefore, the test conditions of the final compounds is 1 μM initiation, 3-fold serial dilution, and 8 concentration points in duplicate.
Incubate the cells at 37° C., 5% CO2 for three days.
24 hours post-seeding, the cells were treated with 200 μl/well of media containing serially diluted compounds in DMSO. DMSO alone was used as the no drug control. The final DMSO concentration in all wells was 0.5%.
The HBsAg kit (Auto Biology-CL 0310) was used to determine the level of secreted HBVsAg. The HBSAg assay was performed as follows: • a) Blance the ELISA kit at room temperature for 30 minutes. • b) Add 50 μL standard solution, sample, positive and negative control to each well of the microplate in the kit. • c) Add 50 μL HBsAg enzyme conjugate to each well. • d) Attach the plate membrane, oscillate for 60 seconds, and incubate at 37° C. for 60 minutes. • e) Add 350 μL washing buffer to each well, shake slightly, discard liquid, repeat 6 times. Then pat 5 times on an absorbent paper towel to dry the hole. • f) Add 50 μL mixture of reagent A and B to each well. Oscillate the microplate for 10 seconds. • g) Cover the plate membrane and incubate at room temperature for 10 minutes. Read the luminescent signal using Biotek-Synergy 2.
Compounds inhibition against HBsAg at different concentrations are calculated by the following formula:
Inhibition %=(1−value of sample/ave. value of control)×100
50% effective concentrations (EC50) and were calculated with the GraphPad Prism software.

For data set [1] the following is noted: monkeys, starting at 4 weeks, more pronounced effect at 13 weeks; cited from earlier work.
For data set [2] the following is noted: cited from earlier work.

Regarding `CC(C)(C)[C@@H]1Cn2nc3c(OCCCCCCC(=O)O)cccc3c2-c2cc(=O)c(C(=O)O)cn21` [I.2, (R)-6-(tert-butyl)-10-((6-carboxyhexyl)oxy)-2-oxo-6,7-dihydro-2H-pyrido[2′,1′:3,4]pyrazino[1,2-b]indazole-3-carboxylic acid], the Uptake ratio on OATP1B1 (0.1 μM) came out at 2.87; on OATP1B1 (1 μM), 1.10; at OATP1B3 (0.1 μM), 2.23; at OATP1B3 (1 μM), 2.34. For the same compound, the EC50 (in general, the concentration at which the effect is half-maximal) in the data set on HBV S-antigen secretion amounted to 6.5 ± 2.5 nM.
For the compound `COCCOc1cc2c(cc1COC)-c1cc(=O)c(C(=O)O)cn1N1[C@@H]2CCC1(C)C` [GS-8873], the “nerve conduction velocity (NCV) of several peripheral nerves” value in data set [1] was “prolong the nerve conduction velocity”; in data set [2] (rats, starting at 4 weeks, more pronounced effect at 13 weeks), “prolong the nerve conduction velocity”. Moreover, the “change from baseline of rat caudal nerve NCV, digital NCV, cauda equina latency, digital latency, tibial nerve latency” value in data set [2] (13 weeks, daily doses 20 MPK/day and 60 MPK/day) is given as “greater than 20%”.
For the compound `CC(C)(C)[C@@H]1Cn2nc3c(OCCCCCCCC(=O)O)cccc3c2-c2cc(=O)c(C(=O)O)cn21` [I.6, (R)-6-(tert-butyl)-10-((7-carboxyheptyl)oxy)-2-oxo-6,7-dihydro-2H-pyrido[2′,1′:3,4]pyrazino[1,2-b]indazole-3-carboxylic acid], the Uptake ratio on OATP1B1 (0.1 μM) is 11.5; on OATP1B1 (1 μM), 18.2; at OATP1B3 (0.1 μM) it was 1.74; on OATP1B3 (1 μM), 4.9. For the same compound, the EC50 in the data set with HBV S-antigen secretion is 2.6 ± 0.6 nM.
